Read-outs that look alike come from different tables or passages of the source.
Columns and labels:
[1] = test system: Vascular smooth muscle (BO54) cells; format: cell-based, baboon
[2] = Biodistribution of cytochalasin B after i.p. injection (HPLC); format: in vivo, mice; conditions: 50 mg/kg i.p.
Description: Biodistribution of Cytochalasin B. To determine the biodistribution of cytochalasin B, mice were injected (i.p.) with 50 mg/kg cytochalasin B. Control mice were injected with DMSO/Tween 20/carboxymethyl cellulose (“vehicle”). The mice were sacrificed at 3, 12, 24 and 72 hours after cytochalasin B or vehicle administration. Organs were removed, homogenized, extracted and the amount of cytochalasin B in tissues quantitated by HPLC. About 75% of the cytochalasin B remained in the peritoneal cavity or at the injection site.

[3] = test system: balloon traumatized pig femoral arteries; assay: Biological stenting of balloon traumatized pig femoral arteries (luminal area morphometry); format: in vivo
Description: Pig femoral arteries were traumatized as described in Example 7, and then treated with cytochalasin B. About 1.5 to about 2 ml of cytochalasin B at 0.1 μg/ml was infused into portions of the artery that had been separated from other portions by ligatures. The artery was then pressurized for 3 minutes and the fluid aspirated. Approximately 8 to about 30 lambda of the solution is retained in the interstitial space surrounding the cells in the tunica media. Ten femoral arteries (two arteries obtained from each of the 5 pigs that were treated according to the single dose protocol described in Example 7) were then evaluated histologically at 4 days or 3 weeks after cytochalasin B adminstration. The maximal luminal area of each artery was measured and calculated from digitized microscopic images by a BQ System IV computerized morphometric analysis system (R & M Biometrics, Inc., Nashville, Tenn.). This experiment was repeated with 5 additional pigs (two arteries per pig; cytochalasin B dose=0.1 μg/ml, applied for 3 minutes at 1 atm pressure; same time points). The data obtained from the two experiments were combined.
The luminal area of the traumatized and cytochalasin B-treated segments of the arteries were also compared to the luminal area of the normal, untreated region of the femoral artery proximal to the test area. […]

[4] = test system: balloon traumatized rabbit carotid artery; format: in vivo
[5] = test system: balloon traumatized left carotid artery; assay: Inter-arterial infusion of crystalline cytochalasin B in balloon traumatized rat carotid artery; format: in vivo, Sprague-Dawley rats
Description: Another study employed twenty, male, Sprague-Dawley rats. The rats underwent balloon trauma to their left carotid artery, followed by inter-arterial infusion of a solution containing 1 mg crystalline cytochalasin B in […] vehicle (Hanks sterile salt solution with 0.5% Cremophor) or a diluent (saline) control. Animals were sacrificed immediately after infusion, and 2, 4, 7 and 14 days post-trauma and infusion. Post-sacrifice, the left and the right (control) carotid arteries were removed. Samples of arteries were obtained for quantitation of ^3H-cytochalasin B by oxidation and scintillation counting, histopathology, autoradiography and vascular morphometry. Histopathology documented uniform, circumferential balloon trauma in the arterial wall of the left carotid arteries.

[6] = test system: balloon traumatized left carotid artery
[7] = test system: Vascular smooth muscle cells (BO54); assay: Scratch-migration assay; format: cell-based, baboon; set-up: key: −=no migration; +1=minimal; +2=mild; +3=moderate; +4=marked (maximum density; limit of cell contact inhibition) migration
Description: Scratch assays to determine the extent of smooth muscle cell migration inhibition by cytochalasin B were performed in accordance with the following protocol:
Vascular smooth muscle cells (BO54) were derived from explants of baboon aortic smooth muscle, as described in Example 10. The cells were grown in flat bottom, six well tissue culture plates, which hold about 5 ml of medium. The vascular smooth muscle cells were plated at 200,000 cells/well and placed at 37° C. in a humidified 5% CO2 incubator for 18 hours. The wells were then scratched with a sterile portion of a single edge razor blade that was held by clamp or pliers and was brought aseptically into contact with the bottom of the well at a 90° angle. The cells from a small area along the scratch were removed by a sterile cotton tipped applicator while the blade was in contact with the bottom of the well. After incubation, the presence of cells in the “scratched” area is indicative of cell migration across the scratch line.
Briefly, a stock solution of cytochalasin B (Sigma Chemical Co.) in dimethyl sulfoxide (DMSO) at 1 mg/ml was prepared. Test dilutions of cytochalasin B or control medium were added. Each experiment included two sets of plates:
A set: Test agent exposure for 1, 3, 6, 8 and 10 days only; and
B set: Test agent exposure for 1, 3, 6, 8 and 10 days, followed by a seven day recovery time with control medium.
Both sets of plates were fixed (10% formalin in PBS) and stained (0.02% crystal violet) at the end of the timed exposures. Test concentrations for cytochalasin B were 1, 0.1 and 0.01 μg/ml, and a negative medium control was included. Fresh medium and drug were supplied 3 times per week.
In this Table, “M” indicates Migration Grade, wherein −=no migration; +1=minimal; +2=mild; +3=moderate; and +4=marked (maximum density; limit of cell contact inhibition) migration of vascular smooth muscle cells into the cleared area adjacent to the scratch. In this Table, “T” denotes a morphological Toxicity Grade, wherein −=no toxicity; +1=minimal; +2=mild; +3=moderate; and +4=marked toxicity. The migration results are expressed as “Grade in the Cleared Area of the Well/Grade in an Undisturbed Region of the Well.” The toxicity values represent a grade for all cells in each well.

C=C1[C@@H](C)[C@H]2[C@H](Cc3ccccc3)NC(=O)[C@]23OC(=O)/C=C/[C@H](O)CCC[C@@H](C)C/C=C/[C@H]3[C@@H]1O [cytochalasin B]
MED, DNA assay ([1]; 5 minute exposure): 10 µg/mL
DNA synthesis inhibition compared with protein synthesis inhibition ([1]; 24 hour assays, 5% FBS, FIGS. 10A-10D): to a greater extent than they inhibited protein synthesis
MED, DNA synthesis assay ([1]; 24 hour exposure): 0.1 µg/mL
organ with the highest amount [2]: liver
lumen area of test region vs normal control segment of the same artery ([3]; 0.1 μg/ml for cytochalasin B): approximately two times as large
luminal area vs other test agents or controls ([3]; 0.1 μg/ml, 4 day and 3 week post-treatment): larger luminal area
artery lumen areas over three weeks vs diluent control ([3]; 0.1 μg/ml, two way analysis of variance): statistically significant difference (p<0.05)
toxicity to the vascular smooth muscle cells ([3]; 10 μg/ml dose, dose response study): appeared to be toxic
myofilament reformation (electron micrographs) ([3]; about 0.1 to about 10.0 μg/ml): myofilament reformation was retarded
constriction or vascular remodeling ([3]; pig, in vivo): did not undergo the constriction or chronic geometrical (vascular) remodeling
incidence of mural microthrombi ([3]; vs untreated balloon traumatized arteries): decreased
intimal proliferation ([4]; Group 1, 2 weeks): minimal intimal and adventital proliferation
intimal proliferation ([4]; Group 1, three weeks): no intimal proliferation
intimal proliferation ([4]; Group 1: 20 mg in 1 g bovine collagen gel in collagen mesh wrap, 1 week): no intimal or adventital proliferation
intimal proliferation ([4]; Group 2, 3 weeks): moderate, irregular intimal proliferation
intimal proliferation ([4]; Group 2, two weeks): complete inhibition of intimal proliferation
intimal proliferation ([4]; Group 3, three weeks): moderate amount of intimal hyperplasia
intimal proliferation ([4]; Group 3, two weeks): mild, irregular intimal proliferation
intimal proliferation ([4]; Group 3: 8 mg in 100 mg pluronic gel on collagen mesh wrap, one week): mild intimal proliferation
intimal proliferation ([4]; Group 4, three weeks): minimal to no intimal proliferation
intimal proliferation ([4]; Group 4, two weeks): minimal intimal proliferation
intimal proliferation ([4]; Group 7a, three weeks): mild irregular intimal proliferation
intimal proliferation ([4]; Group 7a: 10% wt/wt, one week): no intimal proliferation
re-endothelization ([4]; Group 8a, animal 1254): approximately 60%
intimal proliferation ([4]; Group 8a, animal 1255): mild to moderate intimal proliferation
intimal proliferation ([4]; Group 8a, animal 1256): moderate intimal proliferation
intimal proliferation ([4]; Group 8a: 10% wrap 2 weeks, removed, 2 weeks later, animal 1254): none to mild
intimal proliferation ([4]; Group 10 (1% wrap, 2 weeks after removal), animal 1304): moderate initmal proliferation
re-endothelization ([4]; Group 10, animal 1304): 100%
intimal proliferation ([4]; Group 11 (1% wrap, four weeks after removal), animal 1307): moderate initmal proliferation
intimal proliferation ([4]; Group 11, animal 1308): moderate intimal proliferation
re-endothelization ([4]; Group 11, animal 1308): 100%
intimal proliferation ([4]; Group 11, animal 1309): marked intimal proliferation
qualitative difference between test and control animals ([4]; Groups 10 and 11: 1% wt/wt silicone wrap 2 weeks, removed, evaluated 2 or 4 weeks later): No significant difference
amount present over the treated length of artery ([5]; day 0): approximately 8 ug
amount present over the treated length of artery ([5]; day 2): less than 2 ng
crystals by autoradiography ([5]; day 4): not detectable by autoradiography
mean luminal area and neointimal area vs diluent control ([5]; five treated rats): higher mean luminal area and a smaller neointimal area
neointima formation vs diluent treated rats ([5]; morphometric analysis): no statistically significant reduction in neointima formation
morphometry vs untreated controls ([6]; 14 days): no statistical difference from the controls
post-surgical weight gain ([6]; periadventitial crystals): delay in post-surgical weight gain
toxicity at the surgical site ([6]; periadventitial crystals): significant toxicity at the surgical site
Toxicity Grade ([7]; 7-day Recovery Post Exposure, Day 1, 1.0 μg/mL): +2
Toxicity Grade ([7]; 7-day Recovery Post Exposure, Day 3, 1.0 μg/mL): +1
Toxicity Grade ([7]; 7-day Recovery Post Exposure, Day 6, 1.0 μg/mL): +3
Toxicity Grade ([7]; 7-day Recovery Post Exposure, Day 8, 1.0 μg/mL): +3
Toxicity Grade ([7]; 7-day Recovery Post Exposure, Day 10, 1.0 μg/mL): +3
Toxicity Grade ([7]; Continuous Exposure, Day 1, 1.0 μg/mL): +3
Toxicity Grade ([7]; Continuous Exposure, Day 3, 0.1 μg/mL): +1
Toxicity Grade ([7]; Continuous Exposure, Day 3, 1.0 μg/mL): +3
Toxicity Grade ([7]; Continuous Exposure, Day 6, 0.1 μg/mL): +1
Toxicity Grade ([7]; Continuous Exposure, Day 8, 0.1 μg/mL): +1
Toxicity Grade ([7]; Continuous Exposure, Day 10, 0.1 μg/mL): +1
